pKd: −log10 of the molar value. “Also recorded” adds a separate entry of the source. Where a SMILES comes first, the peptide text is derived from it. Bridges are numbered along the chain shown (N, C = ends). [ ]: non-standard residue; d: D form. R8 = C=CCCCCCC[C@@](C)(N)C(=O)O; S5 = C=CCCC[C@](C)(N)C(=O)O; βAla = NCCC(=O)O

Data set [1] concerns the target T1, His-tagged Catalytic Domain of JAK2 (residues 826–1132) (Homo sapiens, UniProt O60674).
T1 construct: His-tagged Catalytic Domain of JAK2 (residues 826–1132); purchased Carna Biosciences
Briefly: MicroScale Thermophoresis (MST) binding to JAK2 catalytic domain. The note with it: RED-tris-NTA labelled His-JAK2 catalytic domain, 25 °C, 50 mM Tris-HCl, 150 mM NaCl, 0.05% Brij35, 1 mM DTT, 10% glycerol, 15% TFE, pH 7.5, Langmuir isotherm fit. Here is the method:
MST experiments were carried out with a Monolith NT 115 system (NanoTemper Technologies, München, Germania) equipped with 40% LED and 40% IR-laser power. […] The protein concentration was adjusted to 200 nM in labeling buffer (Nano Temper Technologies), while the dye concentration was set to 100 nM. Equal volumes (100 μL) of protein and fluorescent dye solutions were mixed and incubated at room temperature in the dark for 30 min. KIRCONG chim analogues were used in the following concentrations: KIRCONG amide 459 μM, KIRCONG disulfide 470 μM, KIRCONG i/i+5 525 μM, and KIRCONG i/i+7 585 μM in labeling buffer. Standard capillaries were employed for analysis, at 25 °C in 50 mM Tris-HCl, 150 mM NaCl, 0.05% Brij35, 1 mM DTT, 10% glycerol, 15% TFE buffer at pH 7.5, as already reported. The equation implemented by the software MO-S002 MO Affinity Analysis, used for fitting data at different concentrations, is based on Langmuir binding isotherm.
To evaluate the ability of KIRCONG analogues to recognize JAK2 catalytic domain, in vitro MST experiments were carried out (Figure 5), keeping JAK2 concentration constant and increasing ligands’ concentrations.
On the technique in general: Microscale thermophoresis detects binding through changes in fluorescence in a small temperature gradient.

Data set [2] in a line: Serum stability in fetal bovine serum. In kind it is in vitro ADME. The note with it: 37 °C; for improvement of stability to proteases after 24 h: 25% FBS, 24 h of analysis, compared with the linear peptide; for metabolised at 3 h, 500 µM: read-out: degraded after 3 h of incubation. Here is the method:
KIRCONG analogues (~1 mg/mL, 500 μM on average), were incubated with fetal bovine serum (FBS) at 25% (w/v) at 37 °C as previously described. At the following time points: 0, 3, 17, 20, 23 and 42 h, 50 µL aliquots of the solutions were mixed with 50 µL of 15% trichloroacetic acid (TCA) to allow the precipitation of serum proteins, they were stored at −20 °C for at least 15 min. After centrifugation (13,000 rpm for 15 min) the supernatants were recovered. Samples were analyzed by RP-HPLC on a HPLC LC-4000 series (Jasco) equipped with UV detector using a C18-Kinetek column from Phenomenex (Milan, Italy), by employing a gradient from 5 to 70% of B (acetonitrile 0.1% TFA) versus A (water 0.1% TFA) in 20 min. Peptide compounds were detected by recording the absorbance at 210 nm and percentages were quantified by assuming 100% their peak areas at t = 0. All stability tests were performed at least in triplicates and reported data are averaged values.
To evaluate if introduced chemical modifications in KIRCONG analogues influence their stabilities to proteolytic degradation, pure compounds were incubated with fetal bovine serum (FBS) and the decrease of chromatographic peaks was followed during time In Figure 4, the area percentages of new derivatives of KIRCONG chim versus time are reported. After 3 h of incubation, KIRCONG chim is degraded by 30% while KIRCONG disulfide of 20% and others less than 10%.
Figure 4 Serum stability assay of KIRCONG chim derivatives. The serum stability was evaluated by incubation in 25% FBS for 42 h. Residual peptide amount is expressed as the percentage of the initial amount versus time.

Data set [3] can be described thus: Solubility observations in TFE/aqueous mixtures (CD and NMR samples). It is filed as physicochemical. Here is the method: CD spectroscopy experiments were carried out by employing a Jasco J-815 spectropolarimeter (JASCO, Tokyo, Japan), at room temperature in the spectral range 190–260 nm and spectra are averaged over two scans, to which blanks were subtracted. CD signals were converted to mean residue ellipticity with deg* cm^2*dmol^−1*res^−1 as units. Scan speed value was 20 nm/min, band width 2.0 nm, resolution 0.2 nm, sensitivity 50 mdeg and response 4 s. Samples were prepared by dilution of freshly prepared stock solutions in 100% TFE (2,2,2-Trifluoroethanol) (1 mM on average). In the CD samples compound concentrations were 100 μM. Spectra were acquired in a quartz cuvette with a path-length of 0.1 cm in mixtures TFE/phosphate buffer, 10 mM at pH 7.4 [52].
NMR spectra of KIRCONG i/i+5 and KIRCONG i/i+7 stapled peptides were registered at 25 °C on a Varian Unity Inova 600 MHz spectrometer provided with a cold probe. […] NMR spectra for KIRCONG i/i+7 were recorded in H2O/TFE 60/40 v/v (peptide concentration 411 μM, pH 4.65). […] To conduct NMR structural analyses the following 2D [^1H, ^1H] experiments were recorded: TOCSY (Total Correlation Spectroscopy), NOESY (Nuclear Overhauser Enhancement Spectroscopy), ROESY (Rotating Frame Overhauser Enhancement Spectroscopy) and DQFCOSY (Double Quantum-Filtered Correlated Spectroscopy). […]

Where [4] appears, read: 25% (w/v) fetal bovine serum, 25% (w/v) FBS, peptide ~1 mg/mL (500 µM on average), TCA precipitation, RP-HPLC C18, UV 210 nm, peak area vs t = 0, mean of at least triplicates.

T1 sequence (O60674 826-1132): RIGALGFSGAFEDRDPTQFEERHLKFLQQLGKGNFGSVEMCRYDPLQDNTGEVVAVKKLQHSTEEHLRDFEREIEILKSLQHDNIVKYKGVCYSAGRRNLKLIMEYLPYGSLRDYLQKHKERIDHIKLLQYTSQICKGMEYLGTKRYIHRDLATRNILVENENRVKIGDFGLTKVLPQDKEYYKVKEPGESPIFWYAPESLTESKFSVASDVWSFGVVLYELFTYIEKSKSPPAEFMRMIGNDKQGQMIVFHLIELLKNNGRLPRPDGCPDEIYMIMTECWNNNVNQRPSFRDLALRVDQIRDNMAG

For `CC(C)C[C@@H]1NC(=O)[C@H](CCC(N)=O)NC(=O)[C@H](Cc2ccc(O)cc2)NC(=O)[C@H](CCC(=O)O)NC(=O)[C@H](CO)NC(=O)[C@H](CCCCN)NC(=O)[C@H](CO)NC(=O)[C@H](CO)NC(=O)[C@H](Cc2ccccc2)NC(=O)CCNC(=O)[C@@H](N)CCCCNC(=O)CC[C@@H](C(=O)NCC(=O)O)NC(=O)[C@H]([C@@H](C)O)NC(=O)[C@H](C(C)C)NC(=O)[C@H](C)NC(=O)[C@H](CO)NC(=O)[C@H](Cc2c[nH]c3ccccc23)NC(=O)[C@H](Cc2ccc(O)cc2)NC(=O)[C@H](Cc2ccccc2)NC(=O)CCNC(=O)CCNC1=O` [KIRCONG amide] (H-K[βAla]FSSKSEYQL[βAla][βAla]FYWSAVTEG-OH; lactam 1-21), the negative logarithm of the Kd (pKd) (usually −log10 of the Kd, conventionally taken in molar units) in data set [1] is 3.70. The “improvement of stability to proteases after 24 h” value in data set [2] is “do not produce a significant improvement of stability”.
On to `CC(=O)N[C@@H](CCCCN)C(=O)NCCC(=O)N[C@@H](Cc1ccccc1)C(=O)N[C@@H](CO)C(=O)N[C@@H](CO)C(=O)N[C@@H](CCCCN)C(=O)N[C@@H](CO)C(=O)N[C@@H](CCC(=O)O)C(=O)N[C@@H](Cc1ccc(O)cc1)C(=O)N[C@@H](CCC(N)=O)C(=O)N[C@@H](CC(C)C)C(=O)NCCC(=O)NCCC(=O)N[C@@H](Cc1ccccc1)C(=O)N[C@@H](Cc1ccc(O)cc1)C(=O)N[C@@H](Cc1c[nH]c2ccccc12)C(=O)N[C@@H](CO)C(=O)N[C@@H](C)C(=O)N[C@H](C(=O)N[C@H](C(N)=O)[C@@H](C)O)C(C)C` [KIRCONG chim, reference compound] (Ac-K[βAla]FSSKSEYQL[βAla][βAla]FYWSAVT-NH2), for which, in data set [2] (25% (w/v) FBS, peptide ~1 mg/mL (500 µM on average), 42 h, TCA precipitation, RP-HPLC C18, UV 210 nm, peak area vs t = 0, mean of at least triplicates), the “residual concentration after 42 h” value is “completely degraded”. Moreover, the metabolised at 3 h, 500 µM in data set [2] (setting [4]) was 30%.
In turn, `CC(C)C[C@@H]1NC(=O)[C@H](CCC(N)=O)NC(=O)[C@H](Cc2ccc(O)cc2)NC(=O)[C@H](CCC(=O)O)NC(=O)[C@H](CO)NC(=O)[C@H](CCCCN)NC(=O)[C@H](CO)NC(=O)[C@H](CO)NC(=O)[C@H](Cc2ccccc2)NC(=O)CCNC(=O)[C@@H](N)CSSC[C@@H](C(=O)NCC(=O)O)NC(=O)[C@H]([C@@H](C)O)NC(=O)[C@H](C(C)C)NC(=O)[C@H](C)NC(=O)[C@H](CO)NC(=O)[C@H](Cc2c[nH]c3ccccc23)NC(=O)[C@H](Cc2ccc(O)cc2)NC(=O)[C@H](Cc2ccccc2)NC(=O)CCNC(=O)CCNC1=O` [KIRCONG disulfide] (H-C[βAla]FSSKSEYQL[βAla][βAla]FYWSAVTCG-OH; disulfide 1-21) had a pKd in data set [1] of 3.22. Moreover, the metabolised at 3 h, 500 µM in data set [2] (setting [4]) came to 20%. In addition, in data set [2], the “improvement of stability to proteases after 24 h” value is given as “do not produce a significant improvement of stability”.
For the molecule `CC(C)C[C@H](NC(=O)[C@H](CCC(N)=O)NC(=O)[C@H](Cc1ccc(O)cc1)NC(=O)[C@H](CCC(=O)O)NC(=O)[C@H](CO)NC(=O)[C@H](CCCCN)NC(=O)[C@H](CO)NC(=O)[C@H](CO)NC(=O)[C@@H](N)Cc1ccccc1)C(=O)NCCC(=O)N[C@@]1(C)CCCC=CCCC[C@@](C)(C(=O)N[C@H](C(=O)N[C@H](C(=O)NCC(=O)O)[C@@H](C)O)C(C)C)NC(=O)[C@H](CO)NC(=O)[C@H](Cc2c[nH]c3ccccc23)NC(=O)[C@H](Cc2ccc(O)cc2)NC(=O)[C@H](Cc2ccccc2)NC1=O` [KIRCONG i/i+5] (H-FSSKSEYQL[βAla][S5]FYWS[S5]VTG-OH; staple 11-16), the KD result in data set [1] is reported as “did not allow to obtain KD values; also recorded: No binding”. Further, the remaining at 42 h, 500 µM in data set [2] (25% (w/v) fetal bovine serum, 25% (w/v) FBS, peptide ~1 mg/mL (500 µM on average), 42 h, TCA precipitation, RP-HPLC C18, UV 210 nm, peak area vs t = 0, mean of at least triplicates, read-out: residual concentration after 42 h) was found to be 85%.
Turning to `CC(C)C[C@@H]1NC(=O)[C@](C)(NC(=O)[C@H](Cc2ccc(O)cc2)NC(=O)[C@H](CCC(=O)O)NC(=O)[C@H](CO)NC(=O)[C@H](CCCCN)NC(=O)[C@H](CO)NC(=O)[C@H](CO)NC(=O)[C@@H](N)Cc2ccccc2)CCCCCC/C=C/CCC[C@@](C)(C(=O)N[C@H](C(=O)N[C@H](C(=O)NCC(=O)O)[C@@H](C)O)C(C)C)NC(=O)[C@H](CO)NC(=O)[C@H](Cc2c[nH]c3ccccc23)NC(=O)[C@H](Cc2ccc(O)cc2)NC(=O)[C@H](Cc2ccccc2)NC(=O)CCNC1=O` [KIRCONG i/i+7] (H-FSSKSEY[R8]L[βAla]FYWS[S5]VTG-OH; staple (E) 8-15), the “solubility at NMR concentration in 15% TFE” value in data set [3] (H2O/TFE 85/15 v/v, NMR peptide concentration 411 µM) is reported as “poorly soluble”. Further, the “solubility in TFE/phosphate buffer (CD sample)” value in data set [3] (TFE/phosphate buffer 10 mM pH 7.4, CD sample concentration 100 µM, diluted from 100% TFE stock) is “not soluble”. Also, the KD result in data set [1] was “did not allow to obtain KD values; also recorded: No binding”.

These data come from PMC9031227, “Structure-Activity Relationship Investigations of Novel Constrained Chimeric Peptidomimetics of SOCS3 Protein Targeting JAK2” (Pharmaceuticals, 2022).
